By pKi is commonly meant the negative decadic logarithm of the Ki, by convention in mol/L.

pKi: −log10 of the molar value. Where two headings read alike, the source gives them in different places. A value given as a limit tells only on which side of the number the result lay.

Results on 13 compounds are retold here after EP0912534B1, “MUSCARINIC ANTAGONISTS” (SCHERING CORPORATION, priority 1996, dated 1998).

For test [1], the target named is T1, cloned human m4 muscarinic receptor (Homo sapiens, UniProt P08173).
T1 sequence (P08173 1-479): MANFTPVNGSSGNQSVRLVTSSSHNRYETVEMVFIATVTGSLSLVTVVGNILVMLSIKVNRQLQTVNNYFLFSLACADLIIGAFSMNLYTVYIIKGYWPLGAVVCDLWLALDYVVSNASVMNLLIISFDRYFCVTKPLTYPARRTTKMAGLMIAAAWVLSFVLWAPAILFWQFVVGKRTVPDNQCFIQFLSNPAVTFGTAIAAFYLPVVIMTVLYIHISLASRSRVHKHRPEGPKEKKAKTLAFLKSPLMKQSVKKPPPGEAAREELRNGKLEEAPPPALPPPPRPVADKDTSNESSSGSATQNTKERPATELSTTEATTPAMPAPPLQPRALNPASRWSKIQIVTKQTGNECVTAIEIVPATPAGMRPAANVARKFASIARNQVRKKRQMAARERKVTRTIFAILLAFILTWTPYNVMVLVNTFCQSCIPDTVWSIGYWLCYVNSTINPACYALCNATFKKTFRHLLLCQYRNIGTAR
Put plainly: Muscarinic binding activity (3H-QNB displacement), m4.

Test [2] addresses T2, cloned human m2 muscarinic receptor (Homo sapiens, UniProt P08172).
T2 sequence (P08172 1-466): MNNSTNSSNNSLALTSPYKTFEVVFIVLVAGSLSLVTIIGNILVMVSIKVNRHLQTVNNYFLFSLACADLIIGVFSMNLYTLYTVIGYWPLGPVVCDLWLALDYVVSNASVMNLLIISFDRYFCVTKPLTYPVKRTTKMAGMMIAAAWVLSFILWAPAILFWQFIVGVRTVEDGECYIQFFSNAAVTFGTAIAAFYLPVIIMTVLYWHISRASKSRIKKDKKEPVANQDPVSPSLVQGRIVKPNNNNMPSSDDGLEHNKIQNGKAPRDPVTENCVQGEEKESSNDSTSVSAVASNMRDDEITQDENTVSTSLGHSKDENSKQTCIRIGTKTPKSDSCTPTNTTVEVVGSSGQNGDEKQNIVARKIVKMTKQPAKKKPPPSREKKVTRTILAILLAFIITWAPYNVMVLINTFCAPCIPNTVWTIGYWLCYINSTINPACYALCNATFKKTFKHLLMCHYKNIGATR
Put plainly: Muscarinic binding activity (3H-QNB displacement), m2.

In test [3] the target is T3, cloned human m1 muscarinic receptor (Homo sapiens, UniProt P11229).
T3 sequence (P11229 1-460): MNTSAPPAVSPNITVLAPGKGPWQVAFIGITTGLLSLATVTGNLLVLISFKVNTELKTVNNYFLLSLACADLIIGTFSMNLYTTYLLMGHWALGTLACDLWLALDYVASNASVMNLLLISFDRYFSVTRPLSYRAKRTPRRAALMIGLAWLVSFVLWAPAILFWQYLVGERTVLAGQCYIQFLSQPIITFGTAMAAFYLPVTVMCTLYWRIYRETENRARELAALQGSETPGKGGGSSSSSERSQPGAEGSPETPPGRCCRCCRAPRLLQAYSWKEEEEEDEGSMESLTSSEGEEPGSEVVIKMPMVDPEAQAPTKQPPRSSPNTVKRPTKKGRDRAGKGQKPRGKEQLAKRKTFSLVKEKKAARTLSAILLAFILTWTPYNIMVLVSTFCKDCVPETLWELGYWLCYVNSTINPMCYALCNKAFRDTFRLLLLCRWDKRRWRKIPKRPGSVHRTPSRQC
Put plainly: Muscarinic binding activity (3H-QNB displacement), m1.

In test [4] the test system is Release of Acetyl Choline (ACh) from Striatum. Put plainly: Microdialysis: release of acetylcholine from striatum of conscious rats. The following applies: 10 mg/kg peritoneal, 3 rats, Isomer A. The class given is in vivo, male Sprague-Dawley Rats. Here is the method: The skull was exposed and drilled through to the dura at a point 0.2 mm anterior and 3.0 mm lateral to the bregma. At these coordinates, a guide cannula was positioned at the outer edge of the dura through the drilled opening, lowered perpendicularly to a depth of 2.5 mm, and permanently secured with dental cement to bone screws. Following the surgery, rats were given ampicillin (40 mg/kg, ip) and individually housed in modified cages. A recovery period of approximately 3 to 7 days was allowed before the microdialysis procedure was undertaken. • Microdialysis: All of the equipment and instrumentation used to conduct in vivo microdialysis was obtained from Bioanalytical Systems, Inc. (BAS). The microdialysis procedure required the insertion through the guide cannula of a thin, needle-like perfusable probe (CMA/12.3 mm x 0.5 mm) to a depth of 3 mm in striatum beyond the end of the guide. The probe was connected beforehand with tubing to a microinjection pump (CMA-/100). Rats were collared and tethered, and, following probe insertion, were placed in a large clear plexiglass bowl with litter material and access to food and water. The probe was perfused at 2 µl/min with Ringer's buffer (NaCl 147 mM; KCI 3.0 mM; CaCl2 1.2 mM; MgCl2 1.0 mM) containing 5.5 mM glucose, 0.2 mM L-ascorbate, and 1 µM neostigmine bromide at pH 7.4. To achieve stable baseline readings, microdialysis was allowed to proceed for 90 minutes prior to the collection of fractions. Fractions (20 µl) were obtained at 10-minute intervals over a 3-hour period using a refrigerated collector (CMA/170 or 200). Following the collection of four to five baseline fractions, the drug or combination of drugs to be tested was administered to the animal. Once collection was complete, each rat was autopsied to determine how accurately the probe was placed. • Acetylcholine (ACh) analysis: The concentration of ACh in collected samples of microdialysate was determined using HPLC/electrochemical detection. Samples were auto-injected (Waters 712 Refrigerated Sample Processor) onto a polymeric analytical HPLC column (BAS, MF-6150) and eluted with 50 mM Na2HPO4, pH 8.5. To prevent bacterial growth, Kathon CG reagent (0.005%) (BAS) was included in the mobile phase. Eluate from the analytical column, containing separated ACh and choline, was then immediately passed through an immobilized enzyme reactor cartridge (BAS, MF-6151) coupled to the column outlet. The reactor contained both acetylcholinesterase and choline oxidase covalently bound to a polymeric backbone. […] Data acquisition was carried out using an IBM Model 70 computer equipped with a microchannel IEEE board. Integration and quantification of peaks were accomplished using "Maxima" chromatography software (Waters Corporation). Total run time per sample was 11 minutes at a flow rate of 1 ml/min. Retention times for acetylcholine and choline were 6.5 and 7.8 minutes respectively. To monitor and correct for possible changes in detector sensitivity during chromatography, ACh standards were included at the beginning, middle and end of each sample queue.
Increases in ACh levels are consistent with presynaptic m2 receptor antagonism.

[5] abbreviates: membranes of transfected CHO cells, read-out: Ki m4.
[6] abbreviates: membranes of transfected CHO cells, read-out: Ki m2.
[7] abbreviates: membranes of transfected CHO cells, read-out: Ki m1.

On to `c1cnc(Oc2ccc3c(c2)CCC3N2CCN(C3CCCCC3)CC2)nc1` (single isomer, unassigned) [Compound 10], for which the pKi in test [1] (setting [5]) was 7.77; in test [2] (setting [6]) it was 7.94; in test [3] (setting [7]), 6.82.

On to `c1cnc(Oc2ccc3c(c2)CCC3N2CCN(C3CCCCC3)CC2)nc1` (single isomer, unassigned) [Compound 11], for which the results for the pKi in test [2] (setting [6]) and in test [3] (setting [7]) were 7.06 and 6.50, respectively.

`COc1ccc(S(=O)(=O)c2ccc3c(c2)CCC3N2CCN(C3CCCCC3)C[C@H]2C)cc1` (single isomer, unassigned) [Compound 14]: the pKi in test [1] (Ki m4, membranes of transfected CHO cells) is 7.80; in test [2] (Ki m2, membranes of transfected CHO cells), 8.21; in test [3] (Ki m1, membranes of transfected CHO cells) it was 6.95. Moreover, the “Mean % of baseline” value in test [4] (sample collection time 20 min (control, first baseline, before injection)) is 99.47 % of baseline; in test [4] (sample collection time 30 min (control, second baseline, before injection)), 100.85 % of baseline; in test [4] (sample collection time 40 min (control, third baseline, before injection)), 99.71 % of baseline; in test [4] (sample collection time 50 min (compounds injected at 50 minutes)), 99.20 % of baseline; in test [4] (sample collection time 60 min, injected at 50 min) it was 100.78 % of baseline; in test [4] (sample collection time 70 min, injected at 50 min), 86.66 % of baseline. The “Mean % of baseline” value in test [4] (sample collection time 80 min, injected at 50 min) is recorded as 95.26 % of baseline; in test [4] (sample collection time 90 min, injected at 50 min) it was 95.90 % of baseline; in test [4] (sample collection time 100 min, injected at 50 min), 102.30 % of baseline; in test [4] (sample collection time 110 min, injected at 50 min) it was 108.24 % of baseline; in test [4] (sample collection time 120 min, injected at 50 min), 85.62 % of baseline; in test [4] (sample collection time 130 min, injected at 50 min), 103.94 % of baseline. In addition, the “Mean % of baseline” value in test [4] (sample collection time 140 min, injected at 50 min) was 99.35 % of baseline; in test [4] (sample collection time 150 min, injected at 50 min) it was 91.47 % of baseline; in test [4] (sample collection time 160 min, injected at 50 min), 90.80 % of baseline; in test [4] (sample collection time 170 min, injected at 50 min), 89.0 % of baseline; in test [4] (sample collection time 180 min, injected at 50 min) it was 83.13 % of baseline.

As for `O=S(=O)(c1ccccc1)c1ccc2c(c1)CCC2N1CCN(CCO)CC1` (stereo not shown) [Compound 1], the pKi in test [1] (setting [5]) was 6.97; in test [2] (setting [6]) it was 7.10; in test [3] (setting [7]), 6.45.

Regarding `O=[N+]([O-])c1ccc(Oc2ccc3c(c2)OCCC3N2CCN(C3CCCCC3)CC2)cc1` (stereo not shown) [Compound 2, 1-Cyclohexyl-4-[7-[(4-nitrophenyl)oxy]-chroman-4-yl]-piperazine], the pKi in test [2] (setting [6]) was 7.57; in test [3] (setting [7]), 7.38.

For the compound `Nc1ccc(Oc2ccc3c(c2)OCCC3N2CCN(C3CCCCC3)CC2)cc1` (stereo not shown) [Compound 3], the negative logarithm of the Ki (pKi) in test [1] (setting [5]) was 7.43; in test [2] (setting [6]), 6.89; in test [3] (setting [7]), 7.09.

Turning to `CC(=O)Nc1ccc(Oc2ccc3c(c2)OCCC3N2CCN(C3CCCCC3)CC2)cc1` (stereo not shown) [Compound 4], the pKi in test [1] (setting [5]) was under 6.70; in test [2] (setting [6]), 6.65; in test [3] (setting [7]), 6.65.

As for `c1cnc(Oc2ccc3c(c2)CCCC3N2CCN(C3CCCCC3)CC2)nc1` (stereo not shown) [Compound 5, 4-Cyclohexyl-1-piperazinyl-[6-[(2-pyrimidinyl)oxy]]-1,2,3,4-tetrahydronaphthalene], the pKi was 7.46 in test [1] (setting [5]), 7.68 in test [2] (setting [6]) and 6.80 in test [3] (setting [7]).

`O=[N+]([O-])c1ccc(Oc2ccc3c(c2)CCCC3N2CCN(C3CCCCC3)CC2)cc1` (stereo not shown) [Compound 6]: the pKi in test [1] (setting [5]) is 7.11; in test [2] (setting [6]), 7.02; in test [3] (setting [7]), 6.20.

For `Nc1ccc(Oc2ccc3c(c2)CCCC3N2CCN(C3CCCCC3)CC2)cc1` (stereo not shown) [Compound 7], the pKi in test [1] (setting [5]) was 7.68; in test [2] (setting [6]), 7.59; in test [3] (setting [7]) it was 6.98.

With `c1cnc(Oc2ccc3c(c2)CCC3N2CCN(C3CCCCC3)CC2)nc1` (stereo not shown) [Compound 9], the figures for the pKi in test [2] (setting [6]) and in test [3] (setting [7]) were 7.46 and 6.58, respectively.

With `c1cnc(Oc2ccc3c(c2)CC(CC2CCCCC2)C3N2CCN(C3CCCCC3)CC2)nc1` (stereo not shown) [Compound 12, 2-[[1-(4-Cyclohexyl-1-piperazinyl)-2-(cyclohexylmethyl)-2,3-dihydro-1H-inden-5-yl]oxy]pyrimidine], the results for the pKi in test [2] (setting [6]) and in test [3] (setting [7]) were 7.04 and 6.76, respectively.

As for `COc1ccc(S(=O)(=O)c2ccc3c(c2)CCC3N2CCC(N3CCCCC3)CC2)cc1` (stereo not shown) [Compound 13], the pKi is 7.48 in test [1] (setting [5]), 7.77 in test [2] (setting [6]) and 7.17 in test [3] (setting [7]).
